From patent publication US11352350B2, “IRAK degraders and uses thereof” (Kymera Therapeutics, Inc., priority 2018, dated 2022) come the findings set out here.

In general, DC50 refers to the concentration at which degradation of the target reaches its halfway point. As a reminder, the IC50 is the concentration that gives 50% inhibition.

The structures appear in SMILES notation. Read-outs that look alike come from different tables or passages of the source. Where only a bound is given, the exact number is not on record here.

Assay [1] has as its target IRAK4 (Homo sapiens (Human), UniProt Q9NWZ3). The assay can be described thus: IRAK4 MSD degradation in OCI-LY10. Type of assay: cell-based. The method in brief: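 OCI-LY10 cells treated with 8-point 1:3 dilutions (top 1 to 10 μM final) for 4 to 24 h at 37° C. Lysate IRAK4 measured by MSD sandwich immunoassay (2H9 capture, Y279 detection, SULFO-TAG anti-rabbit). DC50 from three-parameter logistic fit.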

The test system of assay [2] is OCI-LY10. The assay can be described thus: CTG Cell Viability Assay - OCI-LY10. It is filed as cell-based, human. As to conditions: Homo sapiens, OCI-Ly10, 96 h, OCI-LY10, 4 days; read-out: CTG Cell Viability Assay - OCI-LY10: Average external-IC50. The gist of the method: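 OCI-LY10 cells exposed to 9-dose, 1:3 dilutions from 10 μM top (0.2% DMSO) for 4 days at 37° C, 5% CO2. Viability by CellTiter-Glo luminescence; IC50 from three-parameter logistic fit.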

The mark [3] stands for this setting: OCI-LY10, 4 hrs, MSD, read-out: IRAK4 MSD degradation in OCI-LY10 at 4 hrs: Average external-Abs DC50.
Where [4] appears, read: OCI-LY10, 24 hrs, MSD, read-out: IRAK4 MSD degradation in OCI-LY10 at 24 hrs: Average external-Abs DC50.

Sequence of IRAK4 (Q9NWZ3 whole entry): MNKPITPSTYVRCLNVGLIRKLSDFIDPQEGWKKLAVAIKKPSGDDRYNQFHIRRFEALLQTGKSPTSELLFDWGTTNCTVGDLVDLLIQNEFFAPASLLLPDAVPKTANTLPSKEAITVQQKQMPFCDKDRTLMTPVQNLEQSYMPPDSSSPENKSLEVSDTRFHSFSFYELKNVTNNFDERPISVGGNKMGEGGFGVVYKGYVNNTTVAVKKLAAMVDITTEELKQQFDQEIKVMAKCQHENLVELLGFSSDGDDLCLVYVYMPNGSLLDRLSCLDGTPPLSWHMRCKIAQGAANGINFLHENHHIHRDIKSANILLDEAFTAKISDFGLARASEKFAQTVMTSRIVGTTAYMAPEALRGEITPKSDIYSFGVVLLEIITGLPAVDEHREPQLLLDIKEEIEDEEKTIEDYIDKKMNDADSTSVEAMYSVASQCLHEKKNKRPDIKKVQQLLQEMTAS

With `CC[C@@H]1[C@H](F)C(=O)N[C@@H]1COc1ncc(C#C[C@H]2CC[C@H](CN(C)C3CCN(Cc4cccc5c4n(C)c(=O)n5C4CCC(=O)NC4=O)CC3)CC2)c2cc(C(N)=O)c(OC)cc12` (stereo partly drawn) [I-189], the DC50 in assay [1] (setting [3]) is 10 to 100 nM; in assay [1] (setting [4]), under 10 nM. Besides, the 50% inhibitory concentration (IC50) in assay [2] is over 1000 nM.
On to `CN(CC1(CNc2cccc3c2C(=O)N(C2CCC(=O)NC2=O)C3=O)CCC1)C[C@H]1CC[C@H](n2cc(NC(=O)c3cnn4ccc(N5C[C@H]6C[C@@H]5CO6)nc34)c(C(F)F)n2)CC1` (stereo partly drawn) [I-491], for which the DC50 in assay [1] (OCI-LY10, 4 hrs, read-out: IRAK4 MSD degradation in OCI-LY10 at 4 hrs: DC50) is 100 to 1000 nM; in assay [1] (OCI-LY10, 24 hrs, read-out: IRAK4 MSD degradation in OCI-LY10 at 24 hrs: DC50), over 1000 nM. In addition, in assay [2], the IC50 is over 1000 nM.
Consider `CN(C[C@H]1CN(CCCNc2cccc3c2C(=O)N(C2CCC(=O)NC2=O)C3=O)CCO1)C[C@H]1CC[C@H](n2cc(NC(=O)c3cnn4ccc(N5C[C@H]6C[C@@H]5CO6)nc34)c(C(F)F)n2)CC1` (stereo partly drawn) [I-349], for which the DC50 in assay [1] (setting [3]) lay in the range of 100 to 1000 nM; in assay [1] (setting [4]), 10 to 100 nM. Moreover, the IC50 in assay [2] is under 50 nM.
On to `Cn1c(=O)n(C2CCC(=O)NC2=O)c2ccc(CCCOC3CCN(C[C@H]4CC[C@H](n5cc(NC(=O)c6cnn7ccc(N[C@@H]8CCCC[C@@H]8O)nc67)c(C(F)F)n5)CC4)CC3)cc21` (stereo partly drawn) [I-280], for which the DC50 in assay [1] (setting [3]) lay within 10 to 100 nM. The IC50 in assay [2] is over 1000 nM.
As to `O=C1CCC(N2C(=O)c3cccc(NCCCOC4CCN(Cc5ccc(-n6cc(NC(=O)c7cnn8ccc(N9CCOCC9)nc78)c(C(F)F)n6)cc5)CC4)c3C2=O)C(=O)N1` (stereo not drawn) [I-403], the DC50 is over 1000 nM in assay [1] (setting [3]) and 10 to 100 nM in assay [1] (setting [4]). Moreover, the IC50 in assay [2] fell in the range of 50 to 100 nM.
Consider `O=C1CCC(N2C(=O)c3cccc(CCCOC4CCN(C[C@H]5CC[C@H](n6cc(NC(=O)c7cnn8ccc(N9CCOCC9)nc78)c(C(F)F)n6)CC5)CC4)c3C2=O)C(=O)N1` (stereo partly drawn) [I-207], for which the DC50 in assay [1] (setting [3]) lay in the range of 10 to 100 nM. Also, the IC50 in assay [2] is over 1000 nM.
As for `O=C1CCC(N2C(=O)c3cccc(CCCOC4CCN(C[C@H]5CC[C@H](n6cc(NC(=O)c7coc(-c8ccnc(NCC9CC9)c8)n7)c(C(F)F)n6)CC5)CC4)c3C2=O)C(=O)N1` (stereo partly drawn) [I-171], in assay [1] (setting [3]), the DC50 was in the range of 10 to 100 nM. Besides, the IC50 in assay [2] was in the range of 100 to 500 nM.
On the same counts, the results for `Cn1c(=O)n(C2CCC(=O)NC2=O)c2ccc(CN3CCC(CCN4CCC(n5cc(NC(=O)c6coc(-c7ccnc(NCC8CC8)c7)n6)c(C(F)F)n5)CC4)CC3)cc21` (stereo not drawn) [I-181] are 100 to 1000 nM and 100 to 500 nM.
On the same counts, the results for `CN(CCCN1CCN(c2cccc3c2C(=O)N(C2CCC(=O)NC2=O)C3=O)CC1)C[C@H]1CC[C@H](n2cc(NC(=O)c3cnn4ccc(N5CCOCC5)nc34)c(C(F)F)n2)CC1` (stereo partly drawn) [I-225] are 10 to 100 nM and over 1000 nM.
Turning to `O=C1CCC(N2Cc3c(OC4CC5(CCN(C[C@H]6CC[C@H](n7cc(NC(=O)c8cnn9ccc(N%10C[C@H]%11C[C@@H]%10CO%11)nc89)c(C(F)F)n7)CC6)CC5)C4)cccc3C2=O)C(=O)N1` (stereo partly drawn) [I-328], the DC50 in assay [1] (setting [3]) was 10 to 100 nM; in assay [1] (setting [4]), under 10 nM. Further, the IC50 in assay [2] is under 50 nM.
For the compound `CN(C[C@H]1CC[C@H](n2cc(NC(=O)c3cnn4ccc(N[C@@H]5CCCC[C@@H]5O)nc34)c(C(F)F)n2)CC1)C1CCN(Cc2cccc3c2n(C)c(=O)n3C2CCC(=O)NC2=O)CC1` (stereo partly drawn) [I-279], in assay [1] (setting [3]), the DC50 is under 10 nM. For the same compound, the IC50 in assay [2] is over 1000 nM.
`CN(CCC1CCN(C(=O)c2ccc(CNCc3ccc(-c4ccc5c(cnn5CC5CC5)c4)cc3)cc2)CC1)C[C@H]1CC[C@H](n2cc(NC(=O)c3coc(-c4ccnc(NCC5CC5)c4)n3)c(C(F)F)n2)CC1` [I-134]: the DC50 in assay [1] (setting [3]) and in assay [1] (setting [4]) was over 1000 nM in each case. Further, in assay [2], the IC50 is over 1000 nM.
As for `O=C1CCC(N2C(=O)c3cccc(NC4CCN(C5CCN(C[C@H]6CC[C@H](n7cc(NC(=O)c8cnn9ccc(N%10CCOCC%10)nc89)c(C(F)F)n7)CC6)CC5)CC4)c3C2=O)C(=O)N1` (stereo partly drawn) [I-232], the DC50 in assay [1] (setting [3]) was under 10 nM. Also, the IC50 in assay [2] is under 50 nM.
On the same counts, the results for `CN(C(=O)c1coc(-c2ccnc(NCC3CC3)c2)n1)c1cn([C@H]2CC[C@H](CN(C)C3CCN(Cc4cccc5c4n(C)c(=O)n5C4CCC(=O)NC4=O)CC3)CC2)nc1C(F)F` (stereo partly drawn) [I-395] are 100 to 1000 nM and over 1000 nM.
On the same counts, the results for `CC[C@@H]1[C@H](F)C(=O)N[C@@H]1COc1ncc(C#C[C@H]2CC[C@H](CN(C)CCCc3ccc(CNc4cccc5c4C(=O)N(C4CCC(=O)NC4=O)C5=O)cc3)CC2)c2cc(C(N)=O)c(OC)cc12` (stereo partly drawn) [I-338] are 100 to 1000 nM and under 50 nM.
